Here are results for 18 molecules from US8680159B2, “Bradykinin 1 receptor modulating compounds” (Gruenenthal GmbH, priority 2010, dated 2014).

The first assay addresses T1, human B1R receptor (CHO K1 cells stably transfected with the human B1R gene) (Homo sapiens, UniProt P46663).
T1 construct: expressed in transfected cells; host or cells: CHO K1 cells (Chinese hamster ovary), stably transfected
T1 sequence (P46663 1-353): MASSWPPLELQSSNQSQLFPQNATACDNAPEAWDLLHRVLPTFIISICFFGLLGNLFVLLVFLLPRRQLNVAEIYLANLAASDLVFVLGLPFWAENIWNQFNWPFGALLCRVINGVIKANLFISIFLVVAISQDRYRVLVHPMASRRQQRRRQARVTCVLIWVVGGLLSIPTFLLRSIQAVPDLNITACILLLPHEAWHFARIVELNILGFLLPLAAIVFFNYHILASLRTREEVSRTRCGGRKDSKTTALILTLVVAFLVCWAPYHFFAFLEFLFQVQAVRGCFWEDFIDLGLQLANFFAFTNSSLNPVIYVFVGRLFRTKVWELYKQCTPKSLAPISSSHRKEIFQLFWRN
The assay can be described thus: Functional study on the bradykinin receptor 1 (B1R), Ca2+ fluorescence (Fluo-4) FLIPR/Novostar assay, hB1R cells. The note with it: CHO-K1, read-out: % Inhibition (h-B1R) at 10 μM. It is filed as cell-based. As to the method:
The agonistic or antagonistic action of substances can be quantified on the bradykinin receptor 1 (B1R) of the species human and rat using ectopically expressing cell lines (CHO K1 cells) and with the aid of a Ca^2+-sensitive dye (Fluo-4) using a fluorescent imaging plate reader (FLIPR). The indication in % activation is based on the Ca^2+ signal after addition of Lys-Des-Arg^9-bradykinin (0.5 nM) or Des-Arg^9-bradykinin (100 nM). Antagonists lead to suppression of the Ca^2+ influx after the addition of the agonist. % Inhibition compared with the maximum achievable inhibition is indicated.
The agonistic or antagonistic action of substances can be determined on the bradykinin receptor 1 (B1R) of the species human and rat using the following assay. According to this assay, the increase in intracellular Ca^2+ following administration of a B1R agonist is quantified with the aid of a Ca^2+-sensitive dye (Fluo-4 type, Molecular Probes Europe BV, Leiden, Netherlands) using a Fluorescent Imaging Plate Reader (FLIPR, Molecular Devices, Sunnyvale, USA) and/or using a Novostar (BMG Labtech GmbH, Offenburg, Germany).
Chinese hamster ovary cells (CHO K1 cells) which have been stably transfected with the human B1R gene (hB1R cells) or with the B1R gene of the rat (rB1R cells) are used. For functional studies, the cells are plated out on black 96-well plates having a clear base (BD Biosciences, Heidelberg, Germany or Greiner, Frickenhausen, Germany) in a density of 20,000-35,000 cells/well. The cells are left overnight at 37° C. and with 5% CO2 in culture medium (hB1R cells: Nutrient Mixture Ham's F12, Gibco Invitrogen GmbH, Karlsruhe, Germany or DMEM, Sigma-Aldrich, Taufkirchen, Germany; rB1R cells: D-MEM/F12, Gibco Invitrogen GmbH, Karlsruhe, Germany), with 10 vol. % FBS (fetal bovine serum, Gibco Invitrogen GmbH, Karlsruhe, Germany or PAN Biotech GmbH, Aidenbach, Germany). On the following day, the cells are loaded for 60 minutes at 37° C. with 2.13 μM Fluo-4 (Molecular Probes Europe BV, Leiden, Netherlands) in HBSS buffer (Hank's buffered saline solution, Gibco Invitrogen GmbH, Karlsruhe, Germany) […] (Sigma-Aldrich, Taufkirchen, Germany) and 10 mM HEPES (Sigma-Aldrich, Taufkirchen, Germany). The plates are then washed twice with HBSS buffer, and HBSS buffer additionally containing 0.1% BSA (bovine serum albumin; Sigma-Aldrich, Taufkirchen, Germany), 5.6 mM glucose and 0.05% gelatin (Merck KGaA, Darmstadt, Germany) is added to the plates. After incubation for a further 20 minutes at room temperature, the plates are inserted into the FLIPR or Novostar for Ca^2+ measurement. Alternatively, washing is carried out with buffer A (15 mM HEPES, 80 mM NaCl, 5 mM KCl, 1.2 mM CaCl2, 0.7 mM MgSO4, 2 g/l glucose, 2.5 mM probenecid) followed by loading with buffer A with added 2.5 μM Fluo-4 and 0.025% Pluronic F127 (Sigma-Aldrich, Taufkirchen, Germany). The cells are then washed twice with buffer A and incubated for 30 minutes at room temperature with buffer A additionally containing 0.05% BSA and 0.05% gelatin and are then inserted into the FLIPR or Novostar for Ca^2+ measurement. The Ca^2+-dependent fluorescence is measured before and after the addition of substances (λex=488 nm, λem=540 nm). Quantification is carried out by measuring the highest fluorescence intensity (FC, fluorescence counts) over time.
The FLIPR protocol consists of 2 substance additions, which are pipetted in the FLIPR. In the case of measurements using the Novostar, only the second substance addition is pipetted in the device. Both devices measure the fluorescence intensity over time. Test substances (10 μM) are first pipetted onto the cells and the intracellular Ca^2+ increase is compared with the control (hB1R: Lys-Des-Arg^9-bradykinin>=50 nM; rB1R: Des-Arg^9-bradykinin>=1 μM). This gives the % activation, based on the Ca^2+ signal after addition of Lys-Des-Arg^9-bradykinin (>=50 nM) or Des-Arg^9-bradykinin (>=1 μM). […]
Consider `CN(C(=O)c1ccc2c(c1)CCC2NC(=O)c1c(Cl)cccc1C(F)(F)F)C1CCN(c2ccncc2)CC1` (stereo not drawn) [CC_H-127, 1-[[2-Chloro-6-(trifluoromethyl)-benzoyl]amino]-N-methyl-N-(1-pyridin-4-yl-piperidin-4-yl)-2,3-dihydro-1H-indene-5-carboxylic acid amide], for which the inhibition (usually the relative decrease from the control value, in per cent) at 10 µM worked out at 95%. In the case of `Cc1cc(N2CCC(N(C)C(=O)c3ccc4c(c3)C(N(C)C(=O)c3cc(F)ccc3Cl)CC4)CC2)cc(C)n1` (stereo not drawn) [CC_H-82, 3-[(2-Chloro-5-fluoro-benzoyl)-methyl-amino]-N-[1-(2,6-dimethyl-pyridin-4-yl)-piperidin-4-yl]-N-methyl-2,3-dihydro-1H-indene-5-carboxylic acid amide], the inhibition at 10 µM was 100%. Consider `Cc1cc(N2CCC(N(C)C(=O)c3ccc4c(c3)C(N(C)C(=O)c3c(C)cccc3C)CC4)CC2)cc(C)n1` (stereo not drawn) [CC_H-91, 3-[(2,6-Dimethyl-benzoyl)-methyl-amino]-N-[1-(2,6-dimethyl-pyridin-4-yl)-piperidin-4-yl]-N-methyl-2,3-dihydro-1H-indene-5-carboxylic acid amide], for which the inhibition at 10 µM came out at 99%. In the case of `CN(C(=O)c1ccc2c(c1)C(NC(=O)C(C)(C)c1ccccc1Cl)CCC2)C1CCN(c2ccncc2)CC1` (stereo not drawn) [CC_H-102, 8-[[2-(2-Chlorophenyl)-2-methyl-propanoyl]amino]-N-methyl-N-(1-pyridin-4-yl-piperidin-4-yl)-5,6,7,8-tetrahydro-naphthalene-2-carboxylic acid amide], the inhibition at 10 µM stood at 99%. On to `CN(C(=O)c1ccc2c(c1)C(NC(=O)c1cncnc1)CC2)C1CCN(c2ccc3cnccc3c2)CC1` (stereo not drawn) [CC_H-130, N-[6-[(1-Isoquinolin-6-yl-piperidin-4-yl)-methyl-carbamoyl]-2,3-dihydro-1H-inden-1-yl]-pyrimidine-5-carboxylic acid amide], for which the inhibition at 10 µM stood at 81%. The same measure, in the same setting: with `CN(C(=O)c1ccc2c(c1)C(NC(=O)C1CCCCC1)CC2)C1CCN(c2ccc3cnccc3c2)CC1` (stereo not drawn) [CC_H-77, 3-(Cyclohexanecarbonylamino)-N-(1-isoquinolin-6-yl-piperidin-4-yl)-N-methyl-2,3-dihydro-1H-indene-5-carboxylic acid amide] the figure was 99%; with `CN(C(=O)c1ccc2c(c1)C(N(C)C(=O)c1ccccc1Cl)CC2)C1CCN(c2ccncc2)CC1` (stereo not drawn) [CC_H-106, 3-[(2-Chloro-benzoyl)-methyl-amino]-N-methyl-N-(1-pyridin-4-yl-piperidin-4-yl)-2,3-dihydro-1H-indene-5-carboxylic acid amide], 100%. The same measure, in the same setting: the figure for `Cc1cc(N2CCC(N(C)C(=O)c3ccc4c(c3)C(NC(=O)CCC3CCCC3)CC4)CC2)cc(C)n1` (stereo not drawn) [CC_H-120, 3-(3-Cyclopentyl-propanoylamino)-N-[1-(2,6-dimethyl-pyridin-4-yl)-piperidin-4-yl]-N-methyl-2,3-dihydro-1H-indene-5-carboxylic acid amide] is 100%. Turning to `O=C(NCCC1CCN(c2ccncc2)CC1)c1ccc2c(c1)C(NS(=O)(=O)Cc1ccccc1C(F)(F)F)CC2` (stereo not drawn) [CC_H-128, N-[2-(1-Pyridin-4-yl-piperidin-4-yl)-ethyl]-3-[[[2-(trifluoromethyl)-phenyl]-methylsulfonyl]amino]-2,3-dihydro-1H-indene-5-carboxylic acid amide], the inhibition at 10 µM was determined as 99%.

As for `CN(C(=O)c1ccc2c(c1)C(NC(=O)c1sccc1Cl)CC2)C1CCN(c2ccc3cnccc3c2)CC1` (stereo not drawn) [CC_H-80, 3-Chloro-N-[6-[(1-isoquinolin-6-yl-piperidin-4-yl)-methyl-carbamoyl]-2,3-dihydro-1H-inden-1-yl]-thiophene-2-carboxylic acid amide], the inhibition at 10 µM was 98%.

As to `O=C(NCCC1CCN(c2ccncc2)CC1)c1ccc2c(c1)C(NC(=O)c1cccc(Cl)c1Cl)CC2` (stereo not drawn) [CC_H-74, 3-[(2,3-Dichloro-benzoyl)amino]-N-[2-(1-pyridin-4-yl-piperidin-4-yl)-ethyl]-2,3-dihydro-1H-indene-5-carboxylic acid amide], the inhibition at 10 µM was determined as 96%. Consider `Cc1cc(N2CCC(N(C)C(=O)c3ccc4c(c3)C(NS(=O)(=O)Cc3ccccc3C(F)(F)F)CC4)CC2)cc(C)n1` (stereo not drawn) [CC_H-121, N-[1-(2,6-Dimethyl-pyridin-4-yl)-piperidin-4-yl]-N-methyl-3-[[[2-(trifluoromethyl)-phenyl]-methylsulfonyl]amino]-2,3-dihydro-1H-indene-5-carboxylic acid amide], for which the inhibition at 10 µM amounted to 100%. For `CN(C(=O)c1ccc2c(c1)C(NC(=O)C1CCCCC1)CC2)C1CCN(c2ccncc2)CC1` (stereo not drawn) [CC_H-140, 3-(Cyclohexanecarbonylamino)-N-methyl-N-(1-pyridin-4-yl-piperidin-4-yl)-2,3-dihydro-1H-indene-5-carboxylic acid amide], the inhibition at 10 µM was found to be 100%. On the same count and under the same terms, with `Cc1cc(N2CCC(N(C)C(=O)c3ccc4c(c3)C(NC(=O)C(C)(C)c3ccccc3Cl)CC4)CC2)cc(C)n1` (stereo not drawn) [CC_H-131, 3-[[2-(2-Chlorophenyl)-2-methyl-propanoyl]amino]-N-[1-(2,6-dimethyl-pyridin-4-yl)-piperidin-4-yl]-N-methyl-2,3-dihydro-1H-indene-5-carboxylic acid amide] the figure was 99%.

Take `Cc1cc(N2CCC(N(C)C(=O)c3ccc4c(c3)C(NC(=O)CC(C)C)CC4)CC2)cc(C)n1` (stereo not drawn) [CC_H-122, N-[1-(2,6-Dimethyl-pyridin-4-yl)-piperidin-4-yl]-N-methyl-3-(3-methyl-butanoylamino)-2,3-dihydro-1H-indene-5-carboxylic acid amide]: the inhibition at 10 µM came to 100%.

Still in this assay, the particulars now being: CHO-K1, read-out: % inhibition (human B1R) at 10 μM.
Consider `Cc1cc(N2CCC(N(C)C(=O)c3ccc4c(c3)[C@H](N(C(=O)c3ccc(F)cc3Cl)C(C)C)CC4)CC2)nc(C)n1` [Example H-199, (3R)-3-[(2-Chloro-4-fluoro-benzobenzoyl)-isopropyl-amino]-N-[1-(2,6-dimethyl-pyrimidin-4-yl)-piperidin-4-yl]-N-methyl-2,3-dihydro-1H-indene-5-carboxylic acid amide], for which the inhibition at 10 µM came out at 94%. As for `Cc1cc(N2CCC(N(C)C(=O)c3ccc4c(c3)[C@H](NS(=O)(=O)CC(C)C)CC4)CC2)nc(C)n1` [Example H-191, (3R)-N-[1-(2,6-Dimethyl-pyrimidin-4-yl)-piperidin-4-yl]-N-methyl-3-[(2-methyl-propylsulfonyl)amino]-2,3-dihydro-1H-indene-5-carboxylic acid amide], the inhibition at 10 µM is 100%.

With `Cc1cc(N2CCC(N(C)C(=O)c3ccc4c(c3)[C@H](NC(=O)C3CCCC3)CC4)CC2)ccn1` [Example H-227, (3R)-3-(Cyclopentanecarbonylamino)-N-methyl-N-[1-(2-methyl-pyridin-4-yl)-piperidin-4-yl]-2,3-dihydro-1H-indene-5-carboxylic acid amide], the inhibition at 10 µM worked out at 100%.
